Experimental data: article doi:10.1101/2024.03.25.586180v1 (biorxiv, 2024)

Molecular target: T1, BT2 (Bacteroides thetaiotaomicron, UniProt Q8A5T1)
T1 sequence (Q8A5T1 20-290): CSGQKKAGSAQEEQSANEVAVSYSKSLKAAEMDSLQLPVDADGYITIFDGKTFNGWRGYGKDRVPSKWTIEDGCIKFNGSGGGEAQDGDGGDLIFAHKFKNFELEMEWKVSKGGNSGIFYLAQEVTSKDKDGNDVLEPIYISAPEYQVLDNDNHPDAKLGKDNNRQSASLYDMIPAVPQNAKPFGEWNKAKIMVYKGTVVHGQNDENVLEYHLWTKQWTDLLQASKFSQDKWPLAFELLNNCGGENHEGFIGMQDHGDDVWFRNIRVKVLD
Assay: 1H-NMR, elimination
Assay type: biochemical
Conditions: elimination to 3-keto-2-hydroxy-glucal

CO[C@H]1O[C@H](CO)[C@@H](O)C(=O)[C@H]1O [3-keto methyl α-glucoside]
1H-NMR, elimination: while AL/BT2 do so on the α anomer
